Reference: publication PMC6403222, “Identification of a novel class of RIP1/RIP3 dual inhibitors that impede cell death and inflammation in mouse abdominal aortic aneurysm models” (Cell Death & Disease, 2019)

Key:
MEK5 [1] = target: T1, MEK5 (Homo sapiens, UniProt Q13163); experiment: KINOMEscan competition binding, single concentration […]; details: read-out: % of control at 100 nM
T1 construct: gene MAP2K5

CSF1R [2] = target: T2, CSF1R (Homo sapiens, UniProt P07333); experiment: biochemical; parameters: KINOMEscan competition binding assay (DiscoveRx), per cent of control at 100 nM; details: competition binding, per cent of DMSO control; read-out: Percent Control
Description: (§1) The selectivity of GSK’074 was evaluated using KINOMEscan™ profiling service (DiscoveRx Corporation, Fremont, CA). In brief, an in vitro competition binding assay was used to evaluate GSK’074 specificity at a concentration of 100 nM against 468 human kinases including 403 non-mutant kinases and 65 mutant kinases, as described previously[33],[50]. KINOMEscan™ was also used to determine binding constants (Kd) for GSK’074 against RIP1 and RIP3. In brief, an 11-point threefold serial dilution of GSK’074 was prepared in 100% DMSO at 100× final test concentration and subsequently diluted to 1× in the assay buffer. Kds were calculated with a standard dose-response curve using the Hill equation. Curves were fitted using a non-linear least square fit with the Levenberg–Marquardt algorithm. Next, we investigated the selectivity profile of GSK’074 against a panel of 468 kinases, including 403 non-mutant kinases using the KINOMEscan™ profiling service. […] KIT, MEK5, CSF1R, or EPHB6 had no established roles in cell death and their expression levels in SMCs, with the exception of MEK5, were negligible (Supplementary Figure 3).  Fig. 6 Selectivity profile of GSK’074. Binding of GSK’074 (100 nM) against 468 human kinases (403 non-mutant kinases, 65 mutant kinases) was assessed by DiscoveRx KINOMEscan™. a Selectivity scores of GSK’074. Selectivity score was defined as the number of non-mutant kinases bound to GSK’074 <35% of control (S(35)), 10% of control (S(10)), or 1% of control (S(1)). b TREEspot map of kinases potentially targeted by GSK’074.

MST1 = target: T3, MST1 (Homo sapiens, UniProt Q13043); experiment: biochemical; parameters: KINOMEscan competition binding assay (DiscoveRx), per cent of control at 100 nM; details: competition binding, per cent of DMSO control; read-out: Percent Control
T3 construct: gene STK4
Description: as §1

MAP4K5 = MAP4K5 (Homo sapiens, UniProt Q9Y4K4); experiment: biochemical; parameters: KINOMEscan competition binding assay (DiscoveRx), per cent of control at 100 nM; details: competition binding, per cent of DMSO control; read-out: Percent Control
Description: as §1

FLT3 = FLT3 (Homo sapiens, UniProt P36888); experiment: biochemical; parameters: KINOMEscan competition binding assay (DiscoveRx), per cent of control at 100 nM; details: competition binding, per cent of DMSO control; read-out: Percent Control
Description: as §1

KIT(L576P) = KIT(L576P) (Homo sapiens, UniProt P10721, L576P); experiment: biochemical; parameters: KINOMEscan competition binding assay (DiscoveRx), per cent of control at 100 nM; details: competition binding, per cent of DMSO control; read-out: Percent Control
Description: as §1

RIPK2 = RIPK2 (Homo sapiens, UniProt O43353); experiment: biochemical; parameters: KINOMEscan competition binding assay (DiscoveRx), per cent of control at 100 nM; details: competition binding, per cent of DMSO control; read-out: Percent Control
Description: as §1

ABL1-phosphorylated = target: T4, ABL1-phosphorylated (Homo sapiens, UniProt P00519); experiment: biochemical; parameters: KINOMEscan competition binding assay (DiscoveRx), per cent of control at 100 nM; details: competition binding, per cent of DMSO control; read-out: Percent Control
T4 construct: phosphorylated
Description: as §1

[3] = target: T5, ABL1(T315I)-nonphosphorylated (Homo sapiens, UniProt P00519, T315I); experiment: biochemical; parameters: KINOMEscan competition binding assay (DiscoveRx), per cent of control at 100 nM; details: competition binding, per cent of DMSO control; read-out: Percent Control
T5 construct: nonphosphorylated
Description: as §1

AURKC = AURKC (Homo sapiens, UniProt Q9UQB9); experiment: biochemical; parameters: KINOMEscan competition binding assay (DiscoveRx), per cent of control at 100 nM; details: competition binding, per cent of DMSO control; read-out: Percent Control
Description: as §1

[4] = target: T6, ABL1(Q252H)-nonphosphorylated (Homo sapiens, UniProt P00519, Q252H); experiment: biochemical; parameters: KINOMEscan competition binding assay (DiscoveRx), per cent of control at 100 nM; details: competition binding, per cent of DMSO control; read-out: Percent Control
T6 construct: nonphosphorylated
Description: as §1

[5] = target: T7, ABL1(E255K)-phosphorylated (Homo sapiens, UniProt P00519, E255K); experiment: biochemical; parameters: KINOMEscan competition binding assay (DiscoveRx), per cent of control at 100 nM; details: competition binding, per cent of DMSO control; read-out: Percent Control
T7 construct: phosphorylated
Description: as §1

PDGFRA = PDGFRA (Homo sapiens, UniProt P16234); experiment: biochemical; parameters: KINOMEscan competition binding assay (DiscoveRx), per cent of control at 100 nM; details: competition binding, per cent of DMSO control; read-out: Percent Control
Description: as §1

PDGFRB = PDGFRB (Homo sapiens, UniProt P09619); experiment: biochemical; parameters: KINOMEscan competition binding assay (DiscoveRx), per cent of control at 100 nM; details: competition binding, per cent of DMSO control; read-out: Percent Control
Description: as §1

ABL1-nonphosphorylated = target: T8, ABL1-nonphosphorylated (Homo sapiens, UniProt P00519); experiment: biochemical; parameters: KINOMEscan competition binding assay (DiscoveRx), per cent of control at 100 nM; details: competition binding, per cent of DMSO control; read-out: Percent Control
T8 construct: nonphosphorylated
Description: as §1

[6] = target: T9, ABL1(H396P)-nonphosphorylated (Homo sapiens, UniProt P00519, H396P); experiment: biochemical; parameters: KINOMEscan competition binding assay (DiscoveRx), per cent of control at 100 nM; details: competition binding, per cent of DMSO control; read-out: Percent Control
T9 construct: nonphosphorylated
Description: as §1

KIT(V559D) = KIT(V559D) (Homo sapiens, UniProt P10721, V559D); experiment: biochemical; parameters: KINOMEscan competition binding assay (DiscoveRx), per cent of control at 100 nM; details: competition binding, per cent of DMSO control; read-out: Percent Control
Description: as §1

PRKD2 = PRKD2 (Homo sapiens, UniProt Q9BZL6); experiment: biochemical; parameters: KINOMEscan competition binding assay (DiscoveRx), per cent of control at 100 nM; details: competition binding, per cent of DMSO control; read-out: Percent Control
Description: as §1

LOK = target: T10, LOK (Homo sapiens, UniProt O94804); experiment: biochemical; parameters: KINOMEscan competition binding assay (DiscoveRx), per cent of control at 100 nM; details: competition binding, per cent of DMSO control; read-out: Percent Control
T10 construct: gene STK10
Description: as §1

AURKB = AURKB (Homo sapiens, UniProt Q96GD4); experiment: biochemical; parameters: KINOMEscan competition binding assay (DiscoveRx), per cent of control at 100 nM; details: competition binding, per cent of DMSO control; read-out: Percent Control
Description: as §1

KIT [7] = target: T11, KIT (Homo sapiens, UniProt P10721); experiment: biochemical; parameters: KINOMEscan competition binding assay (DiscoveRx), per cent of control at 100 nM; details: competition binding, per cent of DMSO control; read-out: Percent Control
Description: as §1

MEK5 [8] = target: T1, MEK5; experiment: biochemical; parameters: KINOMEscan competition binding assay (DiscoveRx), per cent of control at 100 nM; details: competition binding, per cent of DMSO control; read-out: Percent Control
Description: as §1

EPHB6 [9] = target: T12, EPHB6 (Homo sapiens, UniProt O15197); experiment: biochemical; parameters: KINOMEscan competition binding assay (DiscoveRx), per cent of control at 100 nM; details: competition binding, per cent of DMSO control; read-out: Percent Control
Description: as §1

RIP1 [10] = target: T13, RIP1 (Homo sapiens, UniProt Q13546); experiment: biochemical; parameters: KINOMEscan competition binding assay (DiscoveRx), per cent of control at 100 nM; details: competition binding, per cent of DMSO control; read-out: Percent Control
T13 construct: gene RIPK1; kinase domain
Description: as §1

HPK1 = target: T14, HPK1 (Homo sapiens, UniProt Q92918); experiment: biochemical; parameters: KINOMEscan competition binding assay (DiscoveRx), per cent of control at 100 nM; details: competition binding, per cent of DMSO control; read-out: Percent Control
T14 construct: gene MAP4K1
Description: as §1

[11] = target: T15, ABL1(T315I)-phosphorylated (Homo sapiens, UniProt P00519, T315I); experiment: biochemical; parameters: KINOMEscan competition binding assay (DiscoveRx), per cent of control at 100 nM; details: competition binding, per cent of DMSO control; read-out: Percent Control
T15 construct: phosphorylated
Description: as §1

FLT3(K663Q) = FLT3(K663Q) (Homo sapiens, UniProt P36888, K663Q); experiment: biochemical; parameters: KINOMEscan competition binding assay (DiscoveRx), per cent of control at 100 nM; details: competition binding, per cent of DMSO control; read-out: Percent Control
Description: as §1

KIT [12] = target: T11, KIT; experiment: KINOMEscan competition binding, single concentration […]; details: read-out: % of control at 100 nM
CSF1R [13] = target: T2, CSF1R; experiment: as above; details: read-out: % of control at 100 nM
RIP1 [14] = target: T13, RIP1; experiment: KINOMEscan competition binding Kd; also ADP-Glo kinase inhibition
EPHB6 [15] = target: T12, EPHB6; experiment: KINOMEscan competition binding, single concentration […]; details: read-out: % of control at 100 nM
RIP3 = target: T16, RIP3 (Homo sapiens, UniProt Q9Y572); experiment: KINOMEscan competition binding Kd; also ADP-Glo kinase inhibition
T16 construct: gene RIPK3; kinase domain

T13 sequence (Q13546 1-294 limits assumed): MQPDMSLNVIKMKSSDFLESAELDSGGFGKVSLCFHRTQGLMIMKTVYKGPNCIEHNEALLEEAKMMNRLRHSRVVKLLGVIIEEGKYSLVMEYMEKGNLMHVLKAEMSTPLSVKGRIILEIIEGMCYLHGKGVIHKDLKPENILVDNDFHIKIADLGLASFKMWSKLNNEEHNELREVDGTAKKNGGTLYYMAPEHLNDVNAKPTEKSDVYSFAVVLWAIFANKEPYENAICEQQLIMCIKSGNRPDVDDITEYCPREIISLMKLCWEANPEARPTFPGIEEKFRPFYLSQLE
T1 sequence (Q13163 whole entry): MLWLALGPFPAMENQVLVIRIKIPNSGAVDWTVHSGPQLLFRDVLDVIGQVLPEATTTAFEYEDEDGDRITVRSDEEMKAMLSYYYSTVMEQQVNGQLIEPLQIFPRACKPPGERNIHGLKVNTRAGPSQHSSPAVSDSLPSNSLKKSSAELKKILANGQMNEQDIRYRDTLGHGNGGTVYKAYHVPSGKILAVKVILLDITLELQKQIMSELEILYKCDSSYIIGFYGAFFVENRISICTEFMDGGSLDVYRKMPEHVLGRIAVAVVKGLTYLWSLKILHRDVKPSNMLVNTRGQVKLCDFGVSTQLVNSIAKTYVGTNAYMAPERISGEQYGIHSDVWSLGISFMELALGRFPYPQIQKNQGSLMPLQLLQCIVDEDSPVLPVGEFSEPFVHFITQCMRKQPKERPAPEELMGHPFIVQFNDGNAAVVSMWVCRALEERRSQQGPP
T12 sequence (O15197 32-1021): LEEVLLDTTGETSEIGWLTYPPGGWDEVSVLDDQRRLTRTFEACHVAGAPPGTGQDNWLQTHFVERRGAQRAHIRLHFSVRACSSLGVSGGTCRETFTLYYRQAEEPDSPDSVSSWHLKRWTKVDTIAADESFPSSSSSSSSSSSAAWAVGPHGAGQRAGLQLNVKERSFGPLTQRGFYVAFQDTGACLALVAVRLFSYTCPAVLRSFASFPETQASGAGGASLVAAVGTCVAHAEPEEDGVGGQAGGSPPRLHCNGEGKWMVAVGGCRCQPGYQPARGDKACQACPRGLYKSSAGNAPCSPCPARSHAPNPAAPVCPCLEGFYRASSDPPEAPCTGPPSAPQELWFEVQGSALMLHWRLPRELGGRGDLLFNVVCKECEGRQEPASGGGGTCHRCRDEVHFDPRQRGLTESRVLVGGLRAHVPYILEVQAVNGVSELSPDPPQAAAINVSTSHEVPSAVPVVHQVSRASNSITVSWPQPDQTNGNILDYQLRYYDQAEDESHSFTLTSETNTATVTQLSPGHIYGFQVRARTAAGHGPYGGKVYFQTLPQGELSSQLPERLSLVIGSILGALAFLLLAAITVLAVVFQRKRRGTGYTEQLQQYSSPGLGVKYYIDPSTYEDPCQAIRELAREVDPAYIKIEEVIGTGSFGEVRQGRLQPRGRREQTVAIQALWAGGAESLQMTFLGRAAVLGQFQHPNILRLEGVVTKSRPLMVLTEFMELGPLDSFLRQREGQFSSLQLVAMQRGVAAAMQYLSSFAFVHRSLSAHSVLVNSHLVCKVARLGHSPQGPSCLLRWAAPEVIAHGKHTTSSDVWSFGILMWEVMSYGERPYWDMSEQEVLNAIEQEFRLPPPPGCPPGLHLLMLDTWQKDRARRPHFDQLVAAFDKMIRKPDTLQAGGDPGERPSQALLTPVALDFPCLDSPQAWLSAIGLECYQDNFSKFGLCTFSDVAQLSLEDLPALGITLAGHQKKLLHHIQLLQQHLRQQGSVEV
T11 sequence (P10721 26-976): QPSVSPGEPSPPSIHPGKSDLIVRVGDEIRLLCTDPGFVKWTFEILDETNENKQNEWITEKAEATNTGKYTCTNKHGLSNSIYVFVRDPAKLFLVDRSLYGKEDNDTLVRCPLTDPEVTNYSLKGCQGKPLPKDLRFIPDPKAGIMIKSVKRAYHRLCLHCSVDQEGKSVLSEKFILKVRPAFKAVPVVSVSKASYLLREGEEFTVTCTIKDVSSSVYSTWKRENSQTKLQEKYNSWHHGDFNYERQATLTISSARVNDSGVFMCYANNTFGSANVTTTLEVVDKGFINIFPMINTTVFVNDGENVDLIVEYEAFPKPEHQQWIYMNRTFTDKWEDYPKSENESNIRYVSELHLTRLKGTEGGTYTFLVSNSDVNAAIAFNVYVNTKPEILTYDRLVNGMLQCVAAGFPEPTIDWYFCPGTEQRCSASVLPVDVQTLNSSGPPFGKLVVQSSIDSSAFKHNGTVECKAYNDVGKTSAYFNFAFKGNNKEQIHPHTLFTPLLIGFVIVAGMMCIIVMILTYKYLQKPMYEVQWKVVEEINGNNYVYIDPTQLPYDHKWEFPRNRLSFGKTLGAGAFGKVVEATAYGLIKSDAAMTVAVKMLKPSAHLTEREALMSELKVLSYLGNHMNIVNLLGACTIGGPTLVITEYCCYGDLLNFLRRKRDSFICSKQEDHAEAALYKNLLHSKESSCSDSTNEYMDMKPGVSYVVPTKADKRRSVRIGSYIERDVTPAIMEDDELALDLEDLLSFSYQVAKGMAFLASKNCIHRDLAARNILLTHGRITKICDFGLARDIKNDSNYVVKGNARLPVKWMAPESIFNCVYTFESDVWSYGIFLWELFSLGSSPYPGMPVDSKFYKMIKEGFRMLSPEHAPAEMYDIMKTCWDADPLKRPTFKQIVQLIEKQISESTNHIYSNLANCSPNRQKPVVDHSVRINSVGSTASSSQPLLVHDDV
T2 sequence (P07333 20-972): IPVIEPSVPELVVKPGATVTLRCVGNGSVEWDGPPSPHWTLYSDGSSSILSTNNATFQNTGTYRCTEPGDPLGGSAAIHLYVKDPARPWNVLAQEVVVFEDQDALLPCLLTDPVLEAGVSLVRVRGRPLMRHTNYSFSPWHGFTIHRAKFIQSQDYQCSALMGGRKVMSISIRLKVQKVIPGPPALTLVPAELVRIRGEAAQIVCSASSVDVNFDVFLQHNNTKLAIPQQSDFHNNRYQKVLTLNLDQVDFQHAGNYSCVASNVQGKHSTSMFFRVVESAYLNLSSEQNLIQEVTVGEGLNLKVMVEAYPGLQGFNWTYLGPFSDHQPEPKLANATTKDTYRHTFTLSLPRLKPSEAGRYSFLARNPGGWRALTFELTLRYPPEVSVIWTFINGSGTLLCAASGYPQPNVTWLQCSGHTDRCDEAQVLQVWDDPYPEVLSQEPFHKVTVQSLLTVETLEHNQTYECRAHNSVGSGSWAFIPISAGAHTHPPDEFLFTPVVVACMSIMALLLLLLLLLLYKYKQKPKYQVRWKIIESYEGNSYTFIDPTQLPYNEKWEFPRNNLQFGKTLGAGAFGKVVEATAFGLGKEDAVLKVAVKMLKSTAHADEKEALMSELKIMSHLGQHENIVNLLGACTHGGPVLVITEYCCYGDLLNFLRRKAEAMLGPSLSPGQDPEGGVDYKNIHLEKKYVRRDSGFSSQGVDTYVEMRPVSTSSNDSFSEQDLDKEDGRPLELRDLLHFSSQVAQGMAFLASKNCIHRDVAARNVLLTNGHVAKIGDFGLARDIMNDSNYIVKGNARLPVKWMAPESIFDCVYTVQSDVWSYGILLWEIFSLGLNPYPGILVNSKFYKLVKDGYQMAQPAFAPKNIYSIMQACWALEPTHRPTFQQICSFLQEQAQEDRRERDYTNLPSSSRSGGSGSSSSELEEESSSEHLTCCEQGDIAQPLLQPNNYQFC
T3 sequence (Q13043 whole entry): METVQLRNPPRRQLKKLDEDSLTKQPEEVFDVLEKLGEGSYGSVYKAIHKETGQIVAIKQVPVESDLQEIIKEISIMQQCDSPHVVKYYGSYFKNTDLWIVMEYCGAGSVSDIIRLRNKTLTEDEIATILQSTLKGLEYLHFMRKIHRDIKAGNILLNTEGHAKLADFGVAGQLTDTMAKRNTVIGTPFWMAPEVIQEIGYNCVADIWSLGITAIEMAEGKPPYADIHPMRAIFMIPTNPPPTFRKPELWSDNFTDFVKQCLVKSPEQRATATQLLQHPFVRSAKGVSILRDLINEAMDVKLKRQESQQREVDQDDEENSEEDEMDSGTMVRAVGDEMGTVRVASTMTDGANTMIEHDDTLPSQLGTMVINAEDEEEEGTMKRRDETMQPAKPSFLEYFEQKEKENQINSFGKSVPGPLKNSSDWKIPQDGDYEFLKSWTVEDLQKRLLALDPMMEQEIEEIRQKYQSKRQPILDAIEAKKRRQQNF
T14 sequence (Q92918 whole entry): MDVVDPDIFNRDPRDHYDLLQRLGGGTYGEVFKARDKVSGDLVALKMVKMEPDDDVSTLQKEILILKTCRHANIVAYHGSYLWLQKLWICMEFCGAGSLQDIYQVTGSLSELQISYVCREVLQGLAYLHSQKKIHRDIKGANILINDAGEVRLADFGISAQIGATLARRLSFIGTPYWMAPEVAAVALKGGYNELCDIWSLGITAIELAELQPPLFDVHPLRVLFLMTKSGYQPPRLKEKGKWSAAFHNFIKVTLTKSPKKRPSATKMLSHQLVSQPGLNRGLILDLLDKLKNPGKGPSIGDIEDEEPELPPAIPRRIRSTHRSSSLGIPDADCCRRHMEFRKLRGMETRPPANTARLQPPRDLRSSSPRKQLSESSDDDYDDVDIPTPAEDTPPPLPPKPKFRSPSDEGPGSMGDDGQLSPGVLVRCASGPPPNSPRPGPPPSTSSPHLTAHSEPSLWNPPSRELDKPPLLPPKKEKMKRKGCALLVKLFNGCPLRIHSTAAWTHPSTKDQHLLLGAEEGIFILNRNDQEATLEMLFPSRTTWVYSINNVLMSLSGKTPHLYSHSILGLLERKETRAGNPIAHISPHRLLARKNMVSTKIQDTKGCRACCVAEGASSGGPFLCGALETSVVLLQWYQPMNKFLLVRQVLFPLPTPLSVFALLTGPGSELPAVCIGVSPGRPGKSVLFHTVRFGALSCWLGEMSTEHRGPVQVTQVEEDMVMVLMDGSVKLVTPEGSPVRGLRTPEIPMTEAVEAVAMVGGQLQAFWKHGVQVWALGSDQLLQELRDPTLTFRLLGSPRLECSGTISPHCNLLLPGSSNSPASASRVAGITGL

- remaining binding at 0.1 µM (MEK5 [1]): < 1%
- remaining binding at 0.1 µM (CSF1R [2]): 0.5%
- remaining binding at 0.1 µM (MST1): 13%
- remaining binding at 0.1 µM (MAP4K5): 5.5%
- remaining binding at 0.1 µM (FLT3): 19%
- remaining binding at 0.1 µM (KIT(L576P)): 0%
- remaining binding at 0.1 µM (RIPK2): 12%
- remaining binding at 0.1 µM (ABL1-phosphorylated): 25%
- remaining binding at 0.1 µM [3]: 0.3%
- remaining binding at 0.1 µM (AURKC): 19%
- remaining binding at 0.1 µM [4]: 6.1%
- remaining binding at 0.1 µM [5]: 24%
- remaining binding at 0.1 µM (PDGFRA): 13%
- remaining binding at 0.1 µM (PDGFRB): 1.3%
- remaining binding at 0.1 µM (ABL1-nonphosphorylated): 3.3%
- remaining binding at 0.1 µM [6]: 2.2%
- remaining binding at 0.1 µM (KIT(V559D)): 0.05%
- remaining binding at 0.1 µM (PRKD2): 32%
- remaining binding at 0.1 µM (LOK): 30%
- remaining binding at 0.1 µM (AURKB): 9.3%
- remaining binding at 0.1 µM (KIT [7]): 0.35%
- remaining binding at 0.1 µM (MEK5 [8]): 0.1%
- remaining binding at 0.1 µM (EPHB6 [9]): 0.5%
- remaining binding at 0.1 µM (RIP1 [10]): 0%
- remaining binding at 0.1 µM (HPK1): 30%
- remaining binding at 0.1 µM [11]: 19%
- remaining binding at 0.1 µM (FLT3(K663Q)): 30%
- remaining binding at 0.1 µM (KIT [12]): < 1%
- remaining binding at 0.1 µM (CSF1R [13]): < 1%
- Kd (RIP1 [14]): 12 nM
- remaining binding at 0.1 µM (EPHB6 [15]): < 1%
- Kd (RIP3): 130 nM
SMILES: Cn1cc(-c2cnc(N)c3c(-c4ccc5c(c4)CCN5C(=O)Cc4ccccc4)csc23)cn1 [GSK'074, GSK2593074A]
